The supplement of paper PMC11061612

Assays:
Assay in all cases: combination Emax (second highest fraction inhibited in the dose matrix, 72 h); higher = more inhibition; extreme values may be limits of the assay
[1] = tested on: RF-48 (B-Cell Non-Hodgkin's Lymphoma)
In short: (§1)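 Cell lines in DMEM/F12 or RPMI with 10% FBS were plated in 1536-well plates, held 24 hours at 37°C, 5% CO2, then given two-drug dose matrices for 72 hours (DMSO typically 0.2%). Viability was read by CellTiter-Glo 2.0 luminescence and scaled as inhibition from 0 (vehicle wells) to 1 (blank wells). Combination Emax is the second-highest inhibition in the matrix; Bliss excess is observed combination effect minus expected EA + EB − EA·EB, EA and EB being single-agent effects.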

[2] = tested on: NCI-H358 (Lung Adenocarcinoma)
In short: as §1

[3] = tested on: NCI-H727 (Other Solid Carcinomas)
In short: as §1

[4] = tested on: PWR-1E (Non-Cancerous)
In short: as §1

[5] = tested on: TK10 (Kidney Carcinoma)
In short: as §1

[6] = tested on: C-4-I (Cervical Carcinoma)
In short: as §1

[7] = tested on: ACHN (Kidney Carcinoma)
In short: as §1

[8] = tested on: Caov-4 (Ovarian Carcinoma)
In short: as §1

[9] = tested on: KYSE-450 (Esophageal Squamous Cell Carcinoma)
In short: as §1

[10] = tested on: MIA-PaCa-2 (Pancreatic Carcinoma)
In short: as §1

[11] = tested on: EW-24 (Ewing's Sarcoma)
In short: as §1

[12] = tested on: OE19 (Esophageal Adenocarcinoma)
In short: as §1

[13] = tested on: UACC-62 (Melanoma)
In short: as §1

[14] = tested on: NUGC-3 (Gastric Carcinoma)
In short: as §1

[15] = tested on: KMOE-2 (Acute Myeloid Leukemia)
In short: as §1

[16] = tested on: OSC-20 (Oral Cavity Carcinoma)
In short: as §1

[17] = tested on: VA-ES-BJ (Other Solid Carcinomas)
In short: as §1

[18] = tested on: NB69 (Neuroblastoma)
In short: as §1

[19] = tested on: EFM-19 (Breast Carcinoma)
In short: as §1

[20] = tested on: SW13 (Other Solid Carcinomas)
In short: as §1

Structure (SMILES) | combination Emax [1] | combination Emax [2] | combination Emax [3] | combination Emax [4] | combination Emax [5] | combination Emax [6] | combination Emax [7] | combination Emax [8] | combination Emax [9] | combination Emax [10] | combination Emax [11] | combination Emax [12] | combination Emax [13] | combination Emax [14] | combination Emax [15] | combination Emax [16] | combination Emax [17] | combination Emax [18] | combination Emax [19] | combination Emax [20]
COc1cccc(OCCCN)c1-c1cc(Nc2cnc(C#N)cn2)n[nH]1 [Prexasertib] + CN(C)CCCOc1ccc(-c2ccc3ncc4c(c3c2)n(C2CCOCC2)c(=O)n4C)cn1 [AZD0156] (first compound max 1 µM, 7x7, partner max 1 µM) | 0.744 | 0.775 | 0.717 | 0.953 | 0.727 | 0.915 | 0.926 | 0.964 | 0.615 | 0.754 | 0.68 | 0.889 | 0.828 | 0.726 | 0.945 | 0.584 | 0.766 | 0.915 | 0.28 | 0.322
COc1cccc(OCCCN)c1-c1cc(Nc2cnc(C#N)cn2)n[nH]1 [Prexasertib] + C[C@@H]1COCCN1C2=NC(=NC(=C2)C3(CC3)[S@](=N)(=O)C)C4=C5C=CNC5=NC=C4 [AZD6738] (first compound max 1 µM, 7x7, partner max 10 µM) | 0.71 | 0.825 | 0.72 | 0.973 | 0.686 | 0.965 | 0.928 | 0.965 | 0.651 | 0.682 | 0.645 | 0.935 | 0.697 | 0.762 | 0.948 | 0.575 | 0.782 | 0.91 | 0.26 | 0.519
COc1cccc(OCCCN)c1-c1cc(Nc2cnc(C#N)cn2)n[nH]1 [Prexasertib] + Cc1cc2ncnn2cc1Nc1ncc2c(n1)n(C1CCOCC1)c(=O)n2C [AZD7648] (first compound max 1 µM, 7x7, partner max 10 µM) | 0.725 | 0.769 | 0.695 | 0.983 | 0.738 | 0.956 | 0.935 | 0.959 | 0.584 | 0.792 | 0.649 | 0.897 | 0.823 | 0.747 | 0.945 | 0.599 | 0.763 | 0.906 | 0.349 | 0.492
COc1cccc(OCCCN)c1-c1cc(Nc2cnc(C#N)cn2)n[nH]1 [Prexasertib] + O=C(c1cc(Cc2n[nH]c(=O)c3ccccc23)ccc1F)N1CCN(C(=O)C2CC2)CC1 [Olaparib] (first compound max 1 µM, 7x7, partner max 10 µM) | 0.726 | 0.85 | 0.389 | 0.71 | 0.625 | 0.929 | 0.906 | 0.976 | 0.744 | 0.797 | 0.696 | 0.648 | 0.743 | 0.726 | 0.974 | 0.648 | 0.837 | 0.896 | 0.354 | 0.39
CCc1c2c(nc3ccc(O)cc13)-c1cc3c(c(=O)n1C2)COC(=O)[C@]3(O)CC [SN-38] + CN(C)CCCOc1ccc(-c2ccc3ncc4c(c3c2)n(C2CCOCC2)c(=O)n4C)cn1 [AZD0156] (first compound max 0.3 µM, 7x7, partner max 1 µM) | 0.801 | 0.722 | 0.297 | 0.946 | 0.409 | 0.932 | 0.951 | 0.954 | 0.767 | 0.945 | 0.781 | 0.618 | 0.891 | 0.984 | 0.945 | 0.716 | 0.875 | 0.995 | 0.482 | 0.988
Cn1cnc2c(F)c(Nc3ccc(Br)cc3Cl)c(C(=O)NOCCO)cc21 [Selumetinib] + C=CCn1c(=O)c2cnc(Nc3ccc(N4CCN(C)CC4)cc3)nc2n1-c1cccc(C(C)(C)O)n1 [AZD1775] (first compound max 10 µM, partner max 1 µM) | 0.489 | 0.621 | 0.614 | 0.34 | 0.478 | 0.929 | 0.863 | 0.764 | 0.499 | 0.767 | 0.334 | 0.28 | 0.827 | 0.639 | 1 | 0.27 | 0.468 | 0.944 | 0.321 | 0.361
Cn1cnc2c(F)c(Nc3ccc(Br)cc3Cl)c(C(=O)NOCCO)cc21 [Selumetinib] + CC(C)n1c(=O)n(C)c2cnc3cc(F)c(-c4ccc(OCCCN5CCCCC5)nc4)cc3c21 [AZD1390] (first compound max 10 µM, 7x7, partner max 0.3 µM) | 0.119 | 0.444 | 0.614 | 0.131 | 0.325 | 0.26 | 0.305 | 0.492 | 0.0763 | 0.535 | 0.132 | 0.128 | 0.787 | 0.328 | 0.976 | 0.12 | 0.129 | 0.836 | 0.235 | 0.401
Cn1cnc2c(F)c(Nc3ccc(Br)cc3Cl)c(C(=O)NOCCO)cc21 [Selumetinib] + CCN(CCO)CCCOc1ccc2c(Nc3cc(CC(=O)Nc4cccc(F)c4)[nH]n3)ncnc2c1 [AZD2811] (first compound max 10 µM, 7x7, partner max 1 µM) | 0.312 | 0.499 | 0.622 | 0.579 | 0.327 | 0.66 | 0.366 | 0.551 | 0.209 | 0.657 | 0.427 | 0.796 | 0.815 | 0.551 | 0.999 | 0.343 | 0.327 | 0.921 | 0.219 | 0.615
Cn1cnc2c(F)c(Nc3ccc(Br)cc3Cl)c(C(=O)NOCCO)cc21 [Selumetinib] + C[C@@H]1COCCN1C2=NC(=NC(=C2)C3(CC3)[S@](=N)(=O)C)C4=C5C=CNC5=NC=C4 [AZD6738] (first compound max 10 µM, 7x7, partner max 10 µM) | 0.371 | 0.586 | 0.652 | 0.935 | 0.573 | 0.908 | 0.804 | 0.76 | 0.356 | 0.686 | 0.667 | 0.606 | 0.803 | 0.666 | 1 | 0.295 | 0.714 | 0.999 | 0.138 | 0.628
CC(=O)Nc1cccc(-n2c(=O)n(C3CC3)c(=O)c3c(Nc4ccc(I)cc4F)n(C)c(=O)c(C)c32)c1 [Trametinib] + Cc1nc(-c2cn3c(n2)-c2ccc(-c4cnn(C(C)(C)C(N)=O)c4)cc2OCC3)n(C(C)C)n1 [Taselisib] (first compound max 1 µM, 7x7, partner max 10 µM) | 0.345 | 0.961 | 0.988 | 0.864 | 0.769 | 0.94 | 0.643 | 0.76 | 0.753 | 0.887 | 0.6 | 0.97 | 0.996 | 0.865 | 1 | 0.669 | 0.687 | 1 | 0.665 | 0.929
CC1(C)CCC(CN2CCN(c3ccc(C(=O)NS(=O)(=O)c4ccc(NCC5CCOCC5)c([N+](=O)[O-])c4)c(Oc4cnc5[nH]ccc5c4)c3)CC2)=C(c2ccc(Cl)cc2)C1 [Venetoclax] + C1CN(CCC1(C(=O)N[C@@H](CCO)C2=CC=C(C=C2)Cl)N)C3=NC=NC4=C3C=CN4 [Capivasertib] (first compound max 1 µM, 7x7, partner max 3 µM) | 0.364 | 0.33 | 0.482 | 0.203 | 0.339 | 0.235 | 0.81 | 0.282 | 0.197 | 0.213 | 0.395 | 0.306 | 0.392 | 0.227 | 0.581 | 0.265 | 0.264 | 0.426 | 0.489 | 0.254
CC1(C)CCC(CN2CCN(c3ccc(C(=O)NS(=O)(=O)c4ccc(NCC5CCOCC5)c([N+](=O)[O-])c4)c(Oc4cnc5[nH]ccc5c4)c3)CC2)=C(c2ccc(Cl)cc2)C1 [Venetoclax] + C=CCn1c(=O)c2cnc(Nc3ccc(N4CCN(C)CC4)cc3)nc2n1-c1cccc(C(C)(C)O)n1 [AZD1775] (first compound max 1 µM, partner max 1 µM) | 0.667 | 0.798 | 0.689 | 0.548 | 0.591 | 0.872 | 0.96 | 0.811 | 0.614 | 0.795 | 0.34 | 0.223 | 0.578 | 0.596 | 0.966 | 0.253 | 0.503 | 0.849 | 0.489 | 0.289
CC1(C)CCC(CN2CCN(c3ccc(C(=O)NS(=O)(=O)c4ccc(NCC5CCOCC5)c([N+](=O)[O-])c4)c(Oc4cnc5[nH]ccc5c4)c3)CC2)=C(c2ccc(Cl)cc2)C1 [Venetoclax] + CCN(CCO)CCCOc1ccc2c(Nc3cc(CC(=O)Nc4cccc(F)c4)[nH]n3)ncnc2c1 [AZD2811] (first compound max 1 µM, 7x7, partner max 1 µM) | 0.43 | 0.276 | 0.317 | 0.455 | 0.16 | 0.269 | 0.739 | 0.263 | 0.27 | 0.37 | 0.457 | 0.779 | 0.28 | 0.298 | 0.293 | 0.336 | 0.359 | 0.777 | 0.541 | 0.402
